# Reference: patent US20090124608A1, “CB2 Receptor Modulators In Neurodegenerative Diseases And Applications Of The Same” (priority 2006, published 2009)
# Tests used:
# cannabinoid receptors = assay: GTPγS binding in end stage spinal cord homogenates from G93A-SOD1 mice, separated by gender; type: biochemical, mouse; conditions: for 2-AG stimulated G-protein activation remaining on co-incubation with CB2 ligand / HU-210 stimulated G-protein activation remaining on co-incubation with CB2 ligand: ligand 1 μM
# Description: [^35S]GTPγS binding assays were performed as described previously (Prather et al. 2000a) in a buffer containing 20 mM Hepes, 100 mM NaCl, and 10 mM MgCl2 at pH 7.4. Each binding reaction contained 10 μg of spinal cord membrane protein, the presence or absence of cannabinoid ligands (see following), plus 0.1 nM [^35S]GTPγS (1250 Ci/mmol, Perkin Elmer Life and Analytical Sciences) and […] of GDP to suppress basal G-protein activation. Reactions were incubated for 2 hrs at 30 °C. Non-specific binding was defined by binding observed in the presence of 10 μM of non-radioactive GTPγS. The reaction was terminated by rapid vacuum filtration through glass fiber filters followed by two washes with ice-cold assay buffer. 4 mL of scintiverse® (Fisher Scientific) was added to the filters and radioactivity quantified by scintillation counting.
# Harvested spinal cords from the vehicle treated control groups at the end-stage of their disease were separated by gender and used to conduct GTP7S binding experiments, which measure the capability of a ligand to promote or suppress G-protein activation.
# It was next determined if the selective CB2 ligands antagonize G-protein activation produced by an endocannabinoid such as 2-AG as well.
# CB1 receptors = conditions: cited from earlier work; for Ki: literature value, read-out: Ki at CB1 receptors
# CB2 receptors = CB2 receptors (Homo sapiens, UniProt P34972); conditions: cited from earlier work
# CB2 receptors, sequence (P34972 whole entry): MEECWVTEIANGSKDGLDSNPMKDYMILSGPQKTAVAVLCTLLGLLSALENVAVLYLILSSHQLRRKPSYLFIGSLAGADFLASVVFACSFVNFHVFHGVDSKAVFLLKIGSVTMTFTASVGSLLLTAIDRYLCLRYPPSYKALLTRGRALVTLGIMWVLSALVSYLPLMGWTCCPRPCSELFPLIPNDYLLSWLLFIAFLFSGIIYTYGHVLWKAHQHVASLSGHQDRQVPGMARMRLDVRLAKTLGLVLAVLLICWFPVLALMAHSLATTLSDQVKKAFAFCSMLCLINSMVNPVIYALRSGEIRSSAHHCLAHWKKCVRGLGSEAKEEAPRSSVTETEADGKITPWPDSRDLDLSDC
# G93A-SOD1 mice [1] = assay: Motor function test (clinging to perpendicular wire mesh screen for 60 seconds) in G93A mice; type: in vivo, mouse; conditions: for improvement in motor function versus vehicle, females: female G93A mice; for improvement in motor function versus vehicle, females / improvement in motor function versus vehicle, males: time to loss of ability to cling 60 seconds; for interval between mean loss of motor function and death, females: female mice, vehicle 19.0 days; for improvement in motor function versus vehicle, males: male G93A mice; for interval between mean loss of motor function and death, males: male mice, vehicle 20.5 days
# Description: Beginning on the first day of observing symptoms, mice were tested for motor function biweekly until sacrifice. Motor function testing was initiated by gently placing animals on a horizontal wire mesh screen. The screen was slowly rotated to be perpendicular to the ground (90°). The duration that mice were able to hang onto the perpendicular wire mesh up to a maximum of 120 seconds was recorded. Because vehicle treated mice on average lost the ability to cling to the wire mesh for 60 seconds in the middle of their survival curve, this “all or none” response was utilized to compare motor function across all treatment groups. Kaplan-Meier time-to-event statistics were employed to analyze the data. The event was defined as the number of days after symptom onset that each individual animal was no longer able to cling to the wire mesh screen for 60 seconds.
# Testing twice a week for the duration of the study provided a quantifiable decline during disease progression. Mice were placed on a horizontal wire mesh screen that was gently inverted to 90°. Kaplan-Meier time-to-event curves were used to analyze the data. The event was defined as the day each animal was no longer able to cling to the perpendicular screen for 60 seconds. […] The disparity between male and female motor function was paralleled by the interval between survival for the genders. Male mice survived an average of 39.6±2.0 (FIG. 6a) days past the onset of symptoms, while females lived 9 days longer than males (p<0.0018*, FIG. 6b). For males and females, loss of motor function preceded death by 20.5 (p<0.0002***) and 19.0 days (p<0.0028**), respectively.
# [2] = Water solubility and dissolution in vehicles; conditions: for stable dissolution in tested vehicles: ethanol/water, glycerol, polyethylene glycol, high purity olive oil tested
# G93A-SOD1 mice [3] = assay: Survival of G93A mice, daily i.p. treatment initiated at symptom onset; type: in vivo, mouse; conditions: for survival improvement versus vehicle, females: female G93A mice; for survival improvement versus vehicle, females / survival improvement versus vehicle, males: 3 mg/kg for AM-1241 and AM630, JTE-907 dose not given; for survival improvement versus vehicle, males: male G93A mice
# Text: Hemizygous transgenic male mice with the G93A mutation of the human SOD1 gene (G1H/1) mutation (B6SJL-TgN (SOD1-G93A) 1 Gur) were obtained from Jackson Laboratories and were bred locally with female B6SJL mice (Jackson Laboratory), according to the protocol obtained from the vendor. To decrease the inherent variability in disease onset and survival with these mice, littermate transgenic males (rather than random males from several different litters) were selected to sire subsequent generations of mice.
# Determination of symptom onset, randomization and drug treatment of G93A mice. Symptom onset was assessed by blinded observation of changes in hind limb gait; these changes are related to the mouse's inability to support its weight on its hind limbs. At onset, mice initially place their weight on the toes and then quickly fall to full foot placement (as opposed to healthy mice which walk and run on the hind toes); this “toe-to-heel” walking pattern produces an asymmetric gait between hind and fore limbs and a characteristic “wobbling” gait. Mouse groups were randomized based on symptom onset and alternately placed in control and treated groups, e.g., the first mouse to develop hind limb weakness was placed in the control group, the second was injected with test compound and placed in the treatment group, and so on. […] By definition, the onset administration paradigm employed was focused on what we term the “survival interval”—namely the time from onset to end-stage sacrifice.
# Mice were sacrificed when any of the following criteria were met: (1) inability to right themselves within 30 seconds when placed on their sides; (2) inability to eat or drink, or move toward food and water placed in low-rimmed dishes on cage floor; (3) loss of more than 10% of total body weight in 24 hours; (4) gross loss of grooming behavior; or (5) labored breathing. Criteria for death were confirmed by a second investigator who is blinded to the group identity of each mouse. The age of symptom onset was subtracted from the age at death for each mouse, and a mean survival interval was calculated for each group. By calculating the ratio of the survival interval of treated groups to the survival interval of untreated littermate controls, a X-fold increase in survival was readily determined.
# The effect of chronic administration of cannabinoids on the survival of G93A mice was next examined (FIG. 4). […] The number of days between symptom onset and animal sacrifice was measured (e.g., survival interval). In humans, this is analogous to the time between diagnosis of ALS and death, ranging from 2-5 years.
# CB1/CB2 receptors [4] = assay: [35S]GTPγS binding, selective antagonism of HU-210, G93A spinal cord membranes; type: biochemical, mouse
# CB1/CB2 receptors [5] = assay: [35S]GTPγS binding, selective antagonism of HU-210, WT-OE spinal cord membranes; type: biochemical, mouse
# [6] = G93A mice, i.p. daily from onset, 3.0 mg/kg
# [7] = daily injections initiated at symptom onset
# [8] = female homogenates, HU-210 100 nM
# [9] = male homogenates, HU-210 100 nM
# [10] = WT-OE spinal cord membranes, HU-210 100 nM, antagonist 3 μM
compound,measurement,setting,value
"CCCCCC=CCC=CCC=CCC=CCCCC(=O)OC(CO)CO [2-AG, (5Z,8Z,11Z, 14Z)-5,8,11,14-Eicosatetraenoic acid, 2-hydroxy-1-(hydroxymethyl) ethyl ester]",[35S]GTPγS binding to G-proteins produced by agonist,"cannabinoid receptors; female spinal cord homogenate, 2-AG 3 μM",29.93±3.3 fmole/mg protein
same,Emax of G-protein activation,cannabinoid receptors; female transgenic spinal cord,17.81±1.89
same,[35S]GTPγS binding to G-proteins produced by agonist,"cannabinoid receptors; male spinal cord homogenate, 2-AG 3 μM",31.30±1.7 fmole/mg protein
same,Emax of G-protein activation,cannabinoid receptors; male transgenic spinal cord,23.21±5.82
"Cc1c(C(=O)NN2CCCCC2)nn(-c2ccc(Cl)cc2Cl)c1-c1ccc(I)cc1 [AM-251, N-(Piperidin-1-yl)-5-(4-iodophenyl)-1-(2,4-dichlorophenyl)-4-methyl-1H-pyrazole-3-carboxamide]",Ki,CB1 receptors,~7 nM
same,affinity at CB2 receptors weaker than at CB1,CB2 receptors; Gatley et al. 1997,over 300 fold
COc1ccc(C(=O)c2c(C)n(CCN3CCOCC3)c3cc(I)ccc23)cc1 [AM-630],"improvement in motor function versus vehicle, females",G93A-SOD1 mice [1],48%
same,"interval between mean loss of motor function and death, females",G93A-SOD1 mice [1],8.7 days
same,"improvement in motor function versus vehicle, males",G93A-SOD1 mice [1],64%
same,"interval between mean loss of motor function and death, males",G93A-SOD1 mice [1],18.9 days
same,water solubility,[2],very poor water solubility
same,stable dissolution in tested vehicles,[2],achieved only with olive oil
same,affinity for CB1 receptors less than for CB2,CB1 receptors; Hosohata et al. 1997,more than 165 fold
same,Survival Interval Ratio (SIR),G93A-SOD1 mice [3]; [6],2.30
same,Total Life-Span Ratio (TLR),G93A-SOD1 mice [3]; [6],1.27
same,survival compared with AM-1241 treated mice,G93A-SOD1 mice [3]; G93A-SOD1 mice,survived twice as long as those mice treated with AM-1241
same,extension of total life-span versus controls,G93A-SOD1 mice [3]; [7],27%
same,living longer after symptom onset than controls (survival interval increase),G93A-SOD1 mice [3]; [7],130%
same,"survival improvement versus vehicle, females",G93A-SOD1 mice [3],8%
same,"survival improvement versus vehicle, males",G93A-SOD1 mice [3],27%
same,effect on survival of G93A-SOD1 mice,G93A-SOD1 mice [3]; treatment initiated at symptom onset,pronounced increase in survival
same,Ki,"CB2 receptors; literature value, read-out: Ki at CB2 receptors",~20 nM
same,2-AG stimulated G-protein activation remaining on co-incubation with CB2 ligand,"cannabinoid receptors; female homogenate, 2-AG 3 μM",8.49±3.7 fmole/mg protein
same,HU-210 stimulated G-protein activation remaining on co-incubation with CB2 ligand,cannabinoid receptors; [8],17.76±3.3 fmole/mg protein
same,2-AG stimulated G-protein activation remaining on co-incubation with CB2 ligand,"cannabinoid receptors; male homogenate, 2-AG 3 μM",6.66±3.9 fmole/mg protein
same,HU-210 stimulated G-protein activation remaining on co-incubation with CB2 ligand,cannabinoid receptors; [9],21.02±5.6 fmole/mg protein
"CCCCCCC(C)(C)c1cc(O)c2c(c1)OC(C)(C)[C@@H]1CC=C(CO)C[C@@H]21 [HU-210, (−)-11-Hydroxy-delta(8)-tetrahydrocannabinol-dimethylheptyl]",Ki,CB1 receptors,~0.5 nM
same,[35S]GTPγS binding to G-proteins produced by agonist,"CB1/CB2 receptors [4]; G93A spinal cord membranes, HU-210 100 nM",57.4±4.4 fmole/mg protein
same,[35S]GTPγS binding to G-proteins produced by agonist,"cannabinoid receptors; female spinal cord homogenates, HU-210 100 nM",40.59±8.5 fmole/mg protein
same,[35S]GTPγS binding to G-proteins produced by agonist,"cannabinoid receptors; male spinal cord homogenates, HU-210 100 nM",35.51±5.6 fmole/mg protein
same,[35S]GTPγS binding to G-proteins produced by agonist,"CB1/CB2 receptors [5]; WT-OE spinal cord membranes, HU-210 100 nM",30.7±6.2 fmole/mg protein
CCCCCOc1c(OC)ccc2cc(C(=O)NCc3ccc4c(c3)OCO4)c(=O)[nH]c12 [JTE-907],"improvement in motor function versus vehicle, females",G93A-SOD1 mice [1],92%
same,"interval between mean loss of motor function and death, females",G93A-SOD1 mice [1],4 days
same,"improvement in motor function versus vehicle, males",G93A-SOD1 mice [1],61%
same,"interval between mean loss of motor function and death, males",G93A-SOD1 mice [1],10.7 days
same,water solubility,[2],very poor water solubility
same,stable dissolution in tested vehicles,[2],achieved only with olive oil
same,"survival improvement versus vehicle, females",G93A-SOD1 mice [3],25%
same,"survival improvement versus vehicle, males",G93A-SOD1 mice [3],did not live significantly longer
same,reduction of HU-210 induced G-protein activation (CB2 receptor antagonism),cannabinoid receptors; female homogenate,31.34 fmole/mg protein
same,2-AG stimulated G-protein activation remaining on co-incubation with CB2 ligand,"cannabinoid receptors; female homogenate, 2-AG 3 μM",5.96±0.97 fmole/mg protein
same,HU-210 stimulated G-protein activation remaining on co-incubation with CB2 ligand,cannabinoid receptors; [8],9.25±1.2 fmole/mg protein
same,reduction of HU-210 induced G-protein activation (CB2 receptor antagonism),cannabinoid receptors; male homogenate,12.31 fmole/mg protein
same,2-AG stimulated G-protein activation remaining on co-incubation with CB2 ligand,"cannabinoid receptors; male homogenate, 2-AG 3 μM",18.14±2.1 fmole/mg protein
same,HU-210 stimulated G-protein activation remaining on co-incubation with CB2 ligand,cannabinoid receptors; [9],23.3 fmole/mg protein
"Cc1c(C(=O)c2cccc3ccccc23)c2cccc3c2n1C(CN1CCOCC1)CO3 (centres unmarked) [WIN-55,212-2, [2,3-Dihydro-5-methyl-3-[(morpholinyl)methyl]pyrrolo-[1,2,3-de]-1,4-benzoxazin-yl]-(1-naphthalenyl)methanone]",water solubility,[2],very poor water solubility
same,stable dissolution in tested vehicles,[2],achieved only with olive oil
same,increase in survival interval versus vehicle,G93A-SOD1 mice [3]; 5 mg/kg daily i.p.,8.8 days
same,survival interval (symptom onset to sacrifice),"G93A-SOD1 mice [3]; 5 mg/kg daily i.p., vehicle 23.7+/−1.7 days",32.5 ± 3.6 days
"(−)-cis-3-[2-Hydroxy-4-(1,1-dimethylheptyl)-phenyl]-trans-4-(3-hydroxypropyl)-cyclohexanol) [CP-55,940]",Ki,CB1 receptors,~0.5 nM
"N-[(1S)-endo-1,3,3-Trimethylbicyclo[2.2.1]heptan-2-yl]-5-(4-chloro-3-methylphenyl)-1-(4-ethoxybenzyl)-pyrazole-3-carboxamide [SR-144528]",% blockade of HU-210-induced G-protein activation,CB1/CB2 receptors [4],49%
same,HU-210 stimulated [35S]GTPγS binding remaining on co-incubation with antagonist,CB1/CB2 receptors [4],29.5±6.4 fmole/mg protein
same,net reduction of HU-210-induced G-protein activation,CB1/CB2 receptors [4],27.9 fmole/mg protein
same,net reduction of HU-210-induced G-protein activation,"CB1/CB2 receptors [5]; WT-OE membranes, antagonist 3 μM",15.6 fmoles/mg protein
same,% blockade of HU-210-induced G-protein activation,CB1/CB2 receptors [5]; [10],approximately 50%
same,HU-210 stimulated [35S]GTPγS binding remaining on co-incubation with antagonist,CB1/CB2 receptors [5]; [10],15.1±1.1 fmole/mg protein
